# Data published in PubChem BioAssay AID330 (DTP/NCI, 2004).
# Several values for one entry are separate records, joined by “and”; a condition that tells them apart may be missing. Equal values may be shown once. Inconclusive results and toxic doses are left out.
# System: P388 leukemia ip, CD2F1 mice, survival T/C
# Test: NCI In Vivo Anticancer Drug Screen. Data for tumor model P388 Leukemia (intraperitoneal) in CD2F1 (CDF1) mice
# Conditions: endpoint: median survival time, higher = longer survival
# Procedure, shortened: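 Mice carrying the transplanted tumor received test compound or vehicle. Survival was recorded in each group, and the value is the treated-group measurement divided by that of the vehicle-treated control group.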
# [1] = dose: 50.0 mg/kg/injection, schedule: Q01DX009 (ip), vehicle: saline with Tween-80
# [2] = dose: 100.0 mg/kg/injection, schedule: Q01DX009 (ip), vehicle: saline with Tween-80
# [3] = dose: 200.0 mg/kg/injection, schedule: Q01DX009 (ip), vehicle: saline with Tween-80
structure (smiles),measurement,setting,value
COc1ccccc1C1=[N+]([O-])C(C)(C)C(c2ccccc2)C1 (centres undefined),T/C,"dose: 100.0 mg/kg/injection, schedule: Q04DX002 (ip), vehicle: Klucel (hydroxypropylcellulose) (HPC)",104 % of control
same,T/C,"dose: 200.0 mg/kg/injection, schedule: Q04DX002 (ip), vehicle: Klucel (hydroxypropylcellulose) (HPC)",102 % of control
Cc1cc(Cl)c2ccc(N(C)C)cc2n1,T/C,[1],119 % of control
same,T/C,[2],112 % of control
same,T/C,[3],110 % of control
Cc1ccc2no[n+]([O-])c2c1[N+](=O)[O-],T/C,"dose: 50.0 mg/kg/injection, schedule: Q01DX005 (ip), vehicle: saline with Tween-80",118 % of control and 119 % of control
same,T/C,"dose: 100.0 mg/kg/injection, schedule: Q01DX005 (ip), vehicle: saline with Tween-80",121 % of control
same,T/C,"dose: 200.0 mg/kg/injection, schedule: Q01DX005 (ip), vehicle: saline with Tween-80",150 % of control
COc1ccc2[se]c(C(=O)O)cc2c1,T/C,"dose: 50.0 mg/kg/injection, schedule: Q01DX009 (ip), vehicle: saline",91 % of control
same,T/C,"dose: 100.0 mg/kg/injection, schedule: Q01DX009 (ip), vehicle: saline",91 % of control
[NH2-].[NH2-].[NH2-].[NH2-].[NH2-].[NH2-].[Ni],T/C,"dose: 6.25 mg/kg/injection, schedule: Q01DX001 (ip), vehicle: saline",97 % of control
same,T/C,"dose: 12.5 mg/kg/injection, schedule: Q01DX001 (ip), vehicle: saline",100 % of control
same,T/C,"dose: 25.0 mg/kg/injection, schedule: Q01DX001 (ip), vehicle: saline",98 % of control
COc1cccc2c1C(=O)c1c(O)c(COC3CC(N)C(O)C(C)O3)cc(O)c1C2=O (centres undefined),T/C,"dose: 1.56 mg/kg/injection, schedule: Q04DX003 (ip), vehicle: water",96 % of control
same,T/C,"dose: 3.13 mg/kg/injection, schedule: Q04DX003 (ip), vehicle: water",96 % of control
same,T/C,"dose: 6.25 mg/kg/injection, schedule: Q04DX003 (ip), vehicle: water",104 % of control
same,T/C,"dose: 12.5 mg/kg/injection, schedule: Q04DX003 (ip), vehicle: water",101 % of control
same,T/C,"dose: 25.0 mg/kg/injection, schedule: Q04DX003 (ip), vehicle: water",95 % of control
O=C1C2C3C=CC(O3)C2C(=O)N1CCN1CCCCC1 (centres undefined),T/C,"dose: 50.0 mg/kg/injection, schedule: Q01DX005 (ip), vehicle: other",97 % of control
same,T/C,"dose: 100.0 mg/kg/injection, schedule: Q01DX005 (ip), vehicle: other",91 % of control
O=c1[nH]c2ccccc2n1C1CCN(CC(O)C2COc3ccccc3O2)CC1 (centres undefined),T/C,[1],94 % of control
same,T/C,[2],106 % of control
same,T/C,[3],103 % of control
NNc1ncnc2ccc(Cl)cc12,T/C,"dose: 50.0 mg/kg/injection, schedule: Q01DX009 (ip), vehicle: Klucel (hydroxypropylcellulose) (HPC)",111 % of control
same,T/C,"dose: 100.0 mg/kg/injection, schedule: Q01DX009 (ip), vehicle: Klucel (hydroxypropylcellulose) (HPC)",111 % of control
same,T/C,"dose: 200.0 mg/kg/injection, schedule: Q01DX009 (ip), vehicle: Klucel (hydroxypropylcellulose) (HPC)",113 % of control
CN=C(N)N/N=C(\C)c1ccc2c(c1)Cc1cc(/C(C)=N/NC(N)=NC)ccc1-2,T/C,"dose: 0.78 mg/kg/injection, schedule: Q04DX002 (ip), vehicle: saline with Tween-80",124 % of control
same,T/C,"dose: 6.25 mg/kg/injection, schedule: Q04DX002 (ip), vehicle: saline with Tween-80",154 % of control
same,T/C,"dose: 12.5 mg/kg/injection, schedule: Q04DX002 (ip), vehicle: saline with Tween-80",123 % of control
Cc1cn(CCCn2cnc3c(=O)[nH]cnc32)c(=O)[nH]c1=O,T/C,"dose: 60.0 mg/kg/injection, schedule: Q01DX005 (ip), vehicle: saline with Tween-80",92 % of control
same,T/C,"dose: 120.0 mg/kg/injection, schedule: Q01DX005 (ip), vehicle: saline with Tween-80",101 % of control
same,T/C,"dose: 240.0 mg/kg/injection, schedule: Q01DX005 (ip), vehicle: saline with Tween-80",88 % of control
O=C1CCOCCCOCCC(=O)OCCCO1,T/C,"dose: 50.0 mg/kg/injection, schedule: Q01DX005 (ip), vehicle: Klucel (hydroxypropylcellulose) (HPC)",104 % of control
same,T/C,"dose: 100.0 mg/kg/injection, schedule: Q01DX005 (ip), vehicle: Klucel (hydroxypropylcellulose) (HPC)",101 % of control
same,T/C,"dose: 200.0 mg/kg/injection, schedule: Q01DX005 (ip), vehicle: Klucel (hydroxypropylcellulose) (HPC)",101 % of control
O=[N+]([O-])CCCN=NN1CCCCC1,T/C,"dose: 12.5 mg/kg/injection, schedule: Q04DX002 (ip), vehicle: saline",104 % of control
same,T/C,"dose: 25.0 mg/kg/injection, schedule: Q04DX002 (ip), vehicle: saline",107 % of control
same,T/C,"dose: 50.0 mg/kg/injection, schedule: Q04DX002 (ip), vehicle: saline",103 % of control
COC(=O)c1nc2[nH]n(-c3ccccc3)c(=O)c2c2c1CCCCCCCCCC2,T/C,"dose: 60.0 mg/kg/injection, schedule: Q01DX005 (ip), vehicle: saline",102 % of control
same,T/C,"dose: 120.0 mg/kg/injection, schedule: Q01DX005 (ip), vehicle: saline",96 % of control
same,T/C,"dose: 240.0 mg/kg/injection, schedule: Q01DX005 (ip), vehicle: saline",96 % of control
CCC(c1ccc(OC)cc1)C(NC(=S)Nc1ccc(Br)cc1)c1ccc(OC)cc1 (centres undefined),T/C,"dose: 100.0 mg/kg/injection, schedule: Q01DX001 (ip), vehicle: saline with Tween-80",96 % of control
same,T/C,"dose: 200.0 mg/kg/injection, schedule: Q01DX001 (ip), vehicle: saline with Tween-80",99 % of control
same,T/C,"dose: 400.0 mg/kg/injection, schedule: Q01DX001 (ip), vehicle: saline with Tween-80",93 % of control
